In patent US4320051A, “Analgesic tripeptide amides” (American Home Products Corporation, priority 1980, dated 1982):
Where “and” joins values, the source holds several entries; their conditions need not be identical. Identical values can stand only once. Square brackets hold non-standard residues; d marks the D form. Ends that are not written are not given here.

Tests used:
[1] = test system: phenylbenzoquinone-induced writhing; experiment: phenylbenzoquinone-induced writhing test; format: in vivo; conditions: subcutaneous, mice
Protocol: Exp. Biol. Med., 95, 729-731 (1957), by establishing three groups of ten mice (Carworth farms) per group (18-27 g. body weight). The animals receive the compound being tested (Examples 9 and 15) subsubcutaneously. Five or 20 minutes later each animal received 0.25 milliliters of the writhing agonist (i.e. 0.02% solution of PBQ). The animals receiving the writhing agonist five minutes after the test compound are observed for a period of ten minutes beginning five minutes after the injection. The animals receiving the writhing agonist 20 minutes after the test compound are observed for ten minutes beginning five minutes after the injection. A compound is an analgesic if it inhibits writhing induced by phenyl benzoquinone.

[2] = test system: opiate receptor (3H-naloxone binding); experiment: 3H-naloxone displacement (procedure of Chang et al.); set-up: 3H-naloxone displacement ED50: unit not given here
Excerpt: Enkephalin, a natural opiate receptor agonist in the brain, has been identified [see Hughes et al., Nature, 258,577 (1975)] as a mixture of two pentapeptides: H-Tyr-Gly-Gly-Phe-Met-OH (methionine-enkephalin) and H-Tyr-Gly-Gly-Phe-Leu-OH (leucine-enkephalin). […] It has been reported that methionine-enkephalin and leucine-enkephalin, when administered by injection in the brain ventricle in rats, induce a profound analgesia that is fully reversible by naloxone. [See Beluzzi et al., Nature, 260, 625 (1976)].

[3] = intravenous administration, relative to morphine; cited from earlier work

Compound	ED50 mg/kg. (confidence limits) ([1]; Time 15 minutes)	ED50 mg/kg. (confidence limits) ([1]; Time 30 minutes)	3H-naloxone displacement ED50 [2]	relative displacement potency ([2]; 3H-naloxone displacement, morphine=1)	times more potent than morphine [3]
C[C@@H](NC(=O)[C@@H](N)Cc1ccc(O)cc1)C(=O)NCC(=O)NC(Cc1ccccc1)CN1CCN(C)CC1 (stereo partly drawn) [Example 9, L-Tyrosyl-D-alanyl-N-[1-[(4-methyl-1-piperazinyl)methyl]-2-phenyl-ethyl]glycinamide]	1.05 (0.62-1.79) mg/kg	4.60 (3.1-6.9) mg/kg and 6.20 (4.4-8.7) mg/kg	1.36×10^-7	1.3	
Y[dM]GFP-NH2					5.5 times
